Laboratory results as given in patent publication US20030008015A1, “Polymer controlled delivery of a therapeutic agent” (priority 2000, published 2003).

Columns and labels:
[1] = test system: MBT-2 cells; assay: MBT-2 cell proliferation assay (MTS tetrazolium); assay type: cell-based; details: 3 days, medium with free or extracted paclitaxel replaced every day, 2.9×10^−6 M to 2.9×10^−9 M or serial dilutions
Experimental: MBT-2 cells in culture flasks were maintained in Dulbecco's Modified Eagles Medium, 10% fetal calf serum, 100 μg/mL penicillin and 100 μg/mL streptomycin at 37° C. in an atmosphere of 5% CO2.
For proliferation assay experiments, cells were harvested with Trypsin-EDTA and seeded (3,000 cells) on an uncoated 96-well plate (Falcon). A standard curve was established by using paclitaxel solutions that were prepared by first dissolving paclitaxel in dimethylsulfoxide (DMSO), then dilution with culture medium. Final concentration of DMSO was 0.75%. After 1 day, the culture medium was replaced by medium containing free paclitaxel, with concentrations ranging from 2.9×10^−6 M to 2.9×10^−9 M or paclitaxel extracted from a paclitaxel-loaded microparticle, with serial dilutions. […] After 3 days, cell proliferation was measured by a tetrazolium-based assay (CellTiter96, Promega). […] Formazan production, related to enzymatic cell activity, was determined at 490 rim (Biorad plate reader Model 550). Results are expressed as a percentage of growth inhibition compared to cells incubated in the same conditions with medium. Paclitaxel encapsulation was then calculated from the standard curve of growth inhibition of free paxlitaxel.
Paclitaxel-loaded microparticle activity on MBT-2 cells was also determined with no extraction process. […] After 3 days, cell proliferation was measured as described above.

[2] = test system: MBT-2 cells; assay: Observation of MBT-2 cells after incubation with free paclitaxel or particles (confocal microscope); assay type: cell-based; details: 4.4×10^−5 M paclitaxel, observed on day 4
Experimental: Cells were also observed after incubation with free paclitaxel or particles. Cells were seeded on chambered cover-glasses (Labtek). After 1 day, free paclitaxel (4.4×10^−5 M) or particles (same concentration of paclitaxel) were added. Medium was replaced every day with free paclitaxel or medium only in the case of the particles. On day 4, cells were washed, fixed during 30 minutes with paraformaldehyde (2%) then observed with a confocal microscope (Zweiss Axiovert 100) for localization of particles.

[3] = test system: BBN-induced bladder cancer; assay: Antitumor activity on BBN-induced bladder cancer: survival and body weight; assay type: in vivo; details: BBN mice
Experimental: (§1) Bladder cancer was induced in female Balb-c mice (8 weeks old) with the carcinogen BBN that was given as a 0.05% solution in the drinking water during 4 weeks. Mice were then treated intravesically (50 μL) with free paclitaxel ([…]) in Tween 80 5%), loaded particles (100 μg) or unloaded particle suspensions. Schedule of administration was the following: mice received the treatment every week during 4 weeks or every other week during 4 weeks. Body weights were recorded every week for all the animals. One week after the last instillation, all the animals were killed. Bladders were removed, weighed and fixed in paraformaldehyde 10% overnight then embedded in paraffin and sectioned.
The anti-cancer activity of paclitaxel encapsulated in microparticles of the invention was assayed against bladder cancer following intravesical instillation. Experimental bladder cancer was induced in female Balb/c mice with BBN, a carcinogenic compound that was added to the drinking water 4 weeks before starting the treatment we compared the same dose (100 μg) of free paclitaxel, encapsulated paclitaxel and non-loaded particles as a control (12 animals per group). Mice received the treatment either once a week or every other week for 4 weeks and number of surviving mice as well as body weight of mice were recorded every week. […]

[4] = test system: BBN-induced bladder cancer; assay: Histologic evaluation and BrdU proliferation index of bladder sections of BBN-mice; assay type: in vivo; details: for Dysplasia (No) / HGTCC (No): number of animals; for CIS (No): number of animals with carcinoma in situ
Experimental: as §1
One week after the last instillation, all the animals were sacrificed and histologic evaluation was performed on haematoxilin and eosin stained sections (table 1). […] In the group treated with free paclitaxel once a week or every other week, CS was found in 5 cases (71°/b) and 7 cases (78%), respectively. On the contrary, no animal of 7 (0%) in the group treated with encapsulated paclitaxel once a week had CIS. Only 2 animals of 9 (22%) treated with particles every other week had CIS. In the groups treated with the paclitaxel, the urothelium was focally or predominantly denuded.
Proliferation index was calculated on these sections using the BrdU incroporation into proliferative cells. BrdU staining was localized in the nucleus with a fine granularity. Nuclei were considered BrdU positve if any nuclear staining was observed. The control group presented a proliferative index of 30% compared to the proliferative index of 10% in a normal urothelium. In all other groups, there was a high proliferative index, from about 35% in groups receiving encapsulated paclitaxel to 65% in groups receiving free paclitaxel.

[5] = 100 μg every other week for 4 weeks

| Compound | MBT-2 cell proliferation [1] | shape of the cells [2] | survival rate ([3]; 100 μg intravesically every other week for 4 weeks) [%] | survival rate ([3]; 100 μg intravesically once a week for 4 weeks) [%] | CIS (%) [4, 5] | Proliferative Index (%) ([4]; 100 μg every other week for 4 weeks, BrdU) | CIS (%) ([4]; 100 μg every other week for 4 weeks, listed as free paclitaxel) | Dysplasia (No) [4, 5] | HGTCC (No) [4, 5] | CIS (No) [4, 5] | CIS (%) ([4]; 100 μg once a week for 4 weeks) | Proliferative Index (%) ([4]; 100 μg once a week for 4 weeks, BrdU) | CIS (%) ([4]; 100 μg once a week for 4 weeks, listed as free paclitaxel) | Dysplasia (No) ([4]; 100 μg once a week for 4 weeks) | HGTCC (No) ([4]; 100 μg once a week for 4 weeks) | CIS (No) ([4]; 100 μg once a week for 4 weeks) | effect on the incidence of CIS ([4]; 100 μg, BBN induced bladder cancer) | proliferative index ([4]; BrdU, groups without stated schedule) [%] |
| --- | --- | --- | --- | --- | --- | --- | --- | --- | --- | --- | --- | --- | --- | --- | --- | --- | --- | --- |
| CC(=O)O[C@H]1C(=O)[C@@]2(C)[C@H]([C@H](OC(=O)c3ccccc3)[C@]3(O)C[C@H](OC(=O)[C@H](O)[C@@H](NC(=O)c4ccccc4)c4ccccc4)C(C)=C1C3(C)C)[C@]1(OC(C)=O)CO[C@@H]1C[C@@H]2O [Free paclitaxel, Paclitaxel] | decreased with an increased concentration | modification of the shape of the cells was observed | 82 | 82 | (78%) | 61 | 78 | 1 | 1 | 7 | (71%) | 65 | 71 | 0 | 1 | 5 | almost no effect | 65 |
| CC(=O)O[C@H]1C(=O)[C@@]2(C)[C@H]([C@H](OC(=O)c3ccccc3)[C@]3(O)C[C@H](OC(=O)[C@H](O)[C@@H](NC(=O)c4ccccc4)c4ccccc4)C(C)=C1C3(C)C)[C@]1(OC(C)=O)CO[C@@H]1C[C@@H]2O [paclitaxel extracted] | the same trend was observed |  |  |  |  |  |  |  |  |  |  |  |  |  |  |  |  |  |
